The supplement of paper PMC10307832

Experiments:
[1] = compound: CC1(C)CNc2cc(NC(=O)c3cccnc3NCc3ccncc3)ccc21 [Motesanib]; assay: relative viability (nuclei count vs DMSO), 5 days (fraction); higher = more cells survive
Summary of the method: (§1)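 Lung cancer cell lines in 1536-well plates were kept overnight at 37 °C, then pinned with five library-drug doses (not always all listed) spaced by √10 on vehicle-anchored plates. After 5 days without medium change, cells were fixed, permeabilised and Hoechst-stained in one step, imaged at 4×, and nuclei were counted with MetaXpress. Viability is treated-well nuclei divided by vehicle-well nuclei, taken as the median over plates. Plates passed only with control CV below 25% and at least one doubling.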

[2] = compound: C[C@@]1(C(=O)Nc2ccc(F)nc2)CCCN1c1nc(Nc2cc(C3CC3)n[nH]2)c2cccn2n1; assay: as above
Summary of the method: as §1

Row | Cell Line | relative viability ([1]; 0.01 µM) | relative viability ([1]; 0.03162 µM) | relative viability ([1]; 0.1 µM) | relative viability ([1]; 0.3162 µM) | relative viability ([1]; 1 µM) | relative viability ([2]; 0.04 µM) | relative viability ([2]; 0.1265 µM) | relative viability ([2]; 0.4 µM) | relative viability ([2]; 1.265 µM)
1 | PC-14 | 0.977 | 0.995 | 0.974 | 1.07 | 1.05 | 1.04 | 0.769 | 0.875 | 0.946
2 | RERF-LC-KJ | 0.899 | 0.981 | 1 | 0.952 | 1.01 | 0.937 | 0.797 | 0.828 | 0.838
3 | SK-LU-1 | 0.979 | 1.05 | 1.12 | 1.16 | 1.14 | 0.979 | 0.938 | 0.854 | 0.918
4 | SK-MES-1 | 1.01 | 1.02 | 1.06 | 1.01 | 1.02 | 1.03 | 0.955 | 0.796 | 0.921
5 | SW 900 | 0.834 | 0.782 | 0.809 | 0.9 | 0.799 | 0.746 | 0.727 | 0.81 | 0.673
6 | SW 1573 | 0.998 | 0.894 | 0.977 | 1.05 | 1.15 | 0.824 | 0.762 | 0.697 | 0.672
